# Test results from patent publication US9119882B2, “Volatile distillate by-product of mint oil that promotes absorption and/or bioavailability of compounds of bio-medical and nutritional interest” (Flavor Liquidating (G) Corporation (new name of A.M. Todd …, priority 2008, dated 2015).
# Test system: Caco-2 cells
# Assay: Pilot study: uptake of CoQ10 into Caco-2 cells
# Type: in vitro ADME, human
# Details: 1 millimolar CoQ10, two hours, control set at 100%
# Procedure: An initial pilot study established that VDMO improved the uptake of CoQ10 into Caco-2 cells. Caco-2 cells were grown for 15 days in the bottom of 24-well plastic culture dishes and then were exposed to 1 millimolar concentrations of CoQ10 mixed with 5%, 1% or no VDMO. The VDMO utilized here was as analyzed in Table 3b. Cells were returned to the incubator for two hours, then cells and media were separated by centrifugation. The cellular fraction was washed and centrifuged a second time and the amount of CoQ10 inside the cells was determined by Liquid Chromatography Mass Spectrometry. The experiment was repeated twice; the absorption in the control group was set to 100% and treatments were compared accordingly; results are shown in Table 4.
smiles,measurement,value
"COC1=C(OC)C(=O)C(C/C=C(\C)CC/C=C(\C)CC/C=C(\C)CC/C=C(\C)CC/C=C(\C)CC/C=C(\C)CC/C=C(\C)CC/C=C(\C)CC/C=C(\C)CCC=C(C)C)=C(C)C1=O [CoQ10 + no VDMO; Control, Coenzyme Q10 (ubiquinone; CoQ10)]",Absorption (%) Experiment 1,100 ± 6.1%
same,Absorption (%) Experiment 2,100 ± 0.3%
